Test results: ChEMBL document CHEMBL5046285, “Probing Fluorinated Motifs onto Dual AChE-MAO B Inhibitors: Rational Design, Synthesis, Biological Evaluation, and Early-ADME Studies” (J Med Chem, 2022); call rule not given here
Values after ≈ are worked out from the molar mass of the structure shown.

Experiments:
Acetylcholinesterase = Acetylcholinesterase (Homo sapiens, UniProt P22303)
Description: Inhibition of human recombinant AChE by Ellman's spectrophotometric assay

[1] = Chromatographic hydrophobicity index of the compound in ammonium acetate buffer at pH 7.4 by RP-HPLC analysis; assay type: physicochemical
[2] = molecular target: T1, Amine oxidase [flavin-containing] A (Homo sapiens, UniProt P21397)
T1 sequence (P21397 whole entry): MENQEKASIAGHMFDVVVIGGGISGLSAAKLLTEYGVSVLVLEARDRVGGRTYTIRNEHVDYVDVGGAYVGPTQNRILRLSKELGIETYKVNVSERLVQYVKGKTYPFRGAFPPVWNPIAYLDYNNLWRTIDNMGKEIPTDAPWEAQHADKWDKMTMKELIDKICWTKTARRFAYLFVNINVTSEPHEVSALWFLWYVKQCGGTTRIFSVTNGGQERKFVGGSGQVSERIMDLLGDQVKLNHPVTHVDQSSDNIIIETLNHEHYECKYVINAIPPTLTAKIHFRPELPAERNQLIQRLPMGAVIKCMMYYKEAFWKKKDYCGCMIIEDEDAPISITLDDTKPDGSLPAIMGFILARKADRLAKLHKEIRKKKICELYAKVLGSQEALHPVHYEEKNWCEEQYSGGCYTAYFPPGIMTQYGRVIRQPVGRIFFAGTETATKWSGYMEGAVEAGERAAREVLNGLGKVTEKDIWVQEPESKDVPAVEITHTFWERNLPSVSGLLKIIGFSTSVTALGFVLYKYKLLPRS
Description: Inhibition of human recombinant MAO-A expressed in supersomes assessed as inhibition of 4-hydroxyquinoline formation using kynuramine as substrate by spectrofluorimetric analysis

[3] = Microsomal stability in mouse liver microsomes assessed as half life at 0.5 uM incubated upto 30 mins in presence of NADPH by LC/MS/MS analysis; assay type: ADME, Microsome
[4] = Intrinsic clearance in mouse liver microsomes at 0.5 uM incubated upto 30 mins in presence of NADPH measured per mg protein by LC/MS/MS analysis; assay type: ADME, Microsome; conditions: read-out: CLH
[5] = 1-Octanol/PBS buffer distribution coefficient, log D of the compound at 1 uM measured after 24 hrs at pH 7.4 by shake flask based HPLC-ES-MS/MS analysis; assay type: physicochemical
[6] = Kinetic aqueous solubility of the compound in PBS incubated for 2 hrs under mild shaking at pH 7.4 by UV- vis spectrophotometric analysis; assay type: physicochemical; conditions: read-out: Kinetic_solubility
[7] = molecular target: Cholinesterase (Equus caballus) (UniProt P81908); assay: Inhibition of horse serum BChE at 10 uM by Ellman's spectrophotometric assay; assay type: cell-free
[8] = molecular target: T2, Amine oxidase [flavin-containing] B (Homo sapiens, UniProt P27338)
T2 sequence (P27338 whole entry): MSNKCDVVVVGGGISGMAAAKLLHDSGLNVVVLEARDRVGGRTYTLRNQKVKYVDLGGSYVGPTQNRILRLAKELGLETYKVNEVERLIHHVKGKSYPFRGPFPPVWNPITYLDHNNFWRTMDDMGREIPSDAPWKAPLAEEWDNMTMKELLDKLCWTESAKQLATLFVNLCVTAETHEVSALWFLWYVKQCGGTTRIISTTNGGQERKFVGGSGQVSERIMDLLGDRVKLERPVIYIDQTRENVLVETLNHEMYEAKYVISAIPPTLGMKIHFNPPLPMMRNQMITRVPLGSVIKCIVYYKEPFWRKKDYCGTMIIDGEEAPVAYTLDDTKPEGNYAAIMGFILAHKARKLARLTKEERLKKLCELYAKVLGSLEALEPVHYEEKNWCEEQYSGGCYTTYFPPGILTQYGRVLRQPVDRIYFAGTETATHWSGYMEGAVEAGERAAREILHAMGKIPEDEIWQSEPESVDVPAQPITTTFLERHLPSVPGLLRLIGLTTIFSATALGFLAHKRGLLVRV
Description: Inhibition of human recombinant MAO-B expressed in supersomes assessed as inhibition of 4-hydroxyquinoline formation using kynuramine as substrate by spectrofluorimetric analysis

Cholinesterase = Cholinesterase (Equus caballus, UniProt P81908)
Description: Inhibition of horse serum BChE by Ellman's spectrophotometric assay

Cytochrome P450 3A4 = Cytochrome P450 3A4 (Homo sapiens, UniProt P08684); assay: Inhibition of human recombinant CYP3A4 expressed in baculosomes by fluorescent homogenous assay; assay type: ADME
[9] = molecular target: T2, Amine oxidase [flavin-containing] B; assay: Inhibition of human recombinant MAO-B expressed in supersomes assessed as inhibition of 4-hydroxyquinoline formation using kynuramine as substrate by spectrophotometric method
[10] = Efflux ratio of apparent permeability across basolateral to apical side over apical to basolateral side in human Caco-2 cells; assay type: ADME, cell-based
[11] = Apparent permeability across apical to basolateral side in human Caco-2 cells at 10 uM incubated for 60 mins by HPLC-MS/MS method; assay type: ADME, cell-based
[12] = Apparent permeability across basolateral to apical side in human Caco-2 cells at 10 uM incubated for 60 mins by HPLC-MS/MS method; assay type: ADME, cell-based
MAO-A = molecular target: T3, MAO-A (Homo sapiens, UniProt P21397); assay: in vitro; conditions: recombinant MAO-A expressed in supersomes, probe kynuramine
T3 sequence (P21397 whole entry): T1 sequence (P21397 whole entry)

[13] = Effective permeability of the compound in PBS buffer at pH 7.4 by PAMPA-BBB assay; assay type: ADME; conditions: read-out: Peff
Homo sapiens = species on record: Homo sapiens; assay: Selectivity for human recombinant MAO-B expressed in supersomes over human recombinant MAO-A expressed in supersomes
HepG2 = assay: Cytotoxicity against human HepG2 cells assessed as reduction in cell viability at 1 to 100 uM incubated for 4 hrs by CellTiter-Glo luminescence assay; assay type: toxicity, cell-based; conditions: hepg2, 4 h, dose 1-100 µM
SH-SY5Y = assay: Cytotoxicity against human SH-SY5Y cells assessed as reduction in cell viability at 1 to 100 uM incubated for 4 hrs by CellTiter-Glo luminescence assay; assay type: toxicity, cell-based; conditions: dose 1-100 µM
[14] = Intrinsic clearance in human liver microsomes at 0.5 uM incubated upto 60 mins in presence of NADPH measured per mg protein by LC/MS/MS analysis; assay type: ADME, Microsome; conditions: read-out: CLH
[15] = Microsomal stability in human liver microsomes assessed as half life at 0.5 uM incubated upto 60 mins in presence of NADPH by LC/MS/MS analysis; assay type: ADME, Microsome

Chain of Cytochrome P450 3A4 (P08684 whole entry): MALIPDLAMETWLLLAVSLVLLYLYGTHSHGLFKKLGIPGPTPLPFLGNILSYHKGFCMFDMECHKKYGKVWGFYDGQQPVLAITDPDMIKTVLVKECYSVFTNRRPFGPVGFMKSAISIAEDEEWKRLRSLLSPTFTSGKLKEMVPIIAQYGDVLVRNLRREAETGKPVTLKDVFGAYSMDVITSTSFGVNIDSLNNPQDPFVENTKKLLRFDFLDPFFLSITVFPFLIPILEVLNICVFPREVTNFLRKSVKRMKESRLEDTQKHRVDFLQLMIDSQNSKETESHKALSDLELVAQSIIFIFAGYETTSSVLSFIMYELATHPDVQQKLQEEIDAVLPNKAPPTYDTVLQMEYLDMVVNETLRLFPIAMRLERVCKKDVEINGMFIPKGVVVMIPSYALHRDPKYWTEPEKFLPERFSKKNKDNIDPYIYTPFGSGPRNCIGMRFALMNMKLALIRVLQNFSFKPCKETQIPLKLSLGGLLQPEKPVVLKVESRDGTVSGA
Chain of Cholinesterase (P81908 whole entry): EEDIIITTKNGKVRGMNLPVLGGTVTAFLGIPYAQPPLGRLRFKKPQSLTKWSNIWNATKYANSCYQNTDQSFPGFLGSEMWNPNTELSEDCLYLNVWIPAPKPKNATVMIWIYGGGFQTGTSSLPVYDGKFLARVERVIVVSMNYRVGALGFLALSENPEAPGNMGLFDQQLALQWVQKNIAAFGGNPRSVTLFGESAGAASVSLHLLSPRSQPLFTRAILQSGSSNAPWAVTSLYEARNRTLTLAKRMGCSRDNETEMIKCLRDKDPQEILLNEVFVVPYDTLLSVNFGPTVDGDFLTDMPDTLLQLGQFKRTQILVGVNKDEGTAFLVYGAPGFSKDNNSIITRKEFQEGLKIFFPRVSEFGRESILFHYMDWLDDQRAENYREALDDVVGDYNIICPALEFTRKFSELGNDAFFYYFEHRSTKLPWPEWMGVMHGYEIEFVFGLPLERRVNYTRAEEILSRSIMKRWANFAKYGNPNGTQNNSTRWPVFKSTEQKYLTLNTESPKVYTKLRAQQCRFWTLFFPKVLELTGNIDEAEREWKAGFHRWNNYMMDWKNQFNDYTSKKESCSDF
Chain of Cholinesterase (Equus caballus) (P81908 whole entry): as above
Chain of Acetylcholinesterase (P22303 whole entry): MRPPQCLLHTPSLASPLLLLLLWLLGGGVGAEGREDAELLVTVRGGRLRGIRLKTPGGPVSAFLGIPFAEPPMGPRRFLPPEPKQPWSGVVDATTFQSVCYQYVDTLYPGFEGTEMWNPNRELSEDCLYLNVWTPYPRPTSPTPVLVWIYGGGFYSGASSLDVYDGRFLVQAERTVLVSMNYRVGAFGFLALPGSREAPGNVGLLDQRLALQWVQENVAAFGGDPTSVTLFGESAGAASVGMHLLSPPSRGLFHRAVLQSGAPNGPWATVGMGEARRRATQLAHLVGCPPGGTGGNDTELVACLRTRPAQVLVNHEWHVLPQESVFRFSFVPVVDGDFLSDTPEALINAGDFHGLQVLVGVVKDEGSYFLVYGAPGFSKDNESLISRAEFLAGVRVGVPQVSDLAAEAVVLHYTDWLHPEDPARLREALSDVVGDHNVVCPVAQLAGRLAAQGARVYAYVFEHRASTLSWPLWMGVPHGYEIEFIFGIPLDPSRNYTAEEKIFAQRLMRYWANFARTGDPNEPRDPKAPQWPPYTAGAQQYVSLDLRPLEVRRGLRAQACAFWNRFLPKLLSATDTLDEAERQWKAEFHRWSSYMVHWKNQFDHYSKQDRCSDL

SMILES	IC50 (Acetylcholinesterase) [nM]	CHI [1]	IC50 [2] [µM]	half-life at 0.5 µM [3] [min]	microsomal CLint at 0.5 µM [4] [µL/min/mg]	logD at 24 h, 1 µM [5]	solubility kinetic at 2 h [6] [µM]	inhibition [7] [%]	IC50 [8] [nM]	IC50 (Cholinesterase) [nM]	Papp [13] [×10⁻⁶ cm/s]	further results
Cc1c(C)c2ccc(OCC3CCN(Cc4cccc(C(F)(F)F)c4)CC3)cc2oc1=O	470	> 100	1.4	9.5	146	5.05	0.9 (≈ 0.401 µg/mL)	35	130	–	–	–
Cc1c(C)c2ccc(OCc3cccc(CN(C)CCCC(F)F)c3)cc2oc1=O	1700	> 100	4.2	4.8	289	3.65	13 (≈ 5.4 µg/mL)	–	560	1600	–	IC50 (Cytochrome P450 3A4): 600 nM
Cc1c(C)c2ccc(OCC3CCN(Cc4cccc(F)c4)CC3)cc2oc1=O	460	> 100	2.5	6.2	225	3.43	11 (≈ 4.35 µg/mL)	–	140	2900	–	inhibition (INH) [9]: Active
Cc1c(C)c2ccc(OCC3CCN(Cc4ccccc4)CC3)cc2oc1=O	380	99.7	–	6.7	206	3.4	57 (≈ 21.5 µg/mL)	–	–	–	–	efflux ratio [10]: 1.6; Papp A→B at 1 h, 10 µM [11]: 7 ×10⁻⁶ cm/s; Papp B→A at 1 h, 10 µM [12]: 12 ×10⁻⁶ cm/s
CCN(CCCOc1ccc2c(C)c(C)c(=O)oc2c1)Cc1cccc(F)c1	1200	> 100	7.8	5.3	260	–	18 (≈ 6.9 µg/mL)	–	73	4300	–	–
CN(Cc1ccccc1)Cc1ccc(COc2ccc3c(CO)cc(=O)oc3c2)cc1	–	99.3	–	31.7	43.9	3.81	–	–	–	–	–	–
CN(CCCO)Cc1ccc(COc2ccc3c(CO)cc(=O)oc3c2)cc1	2200	35.6	–	–	–	–	> 500	27	420	–	3.1	inhibition at 10 µM (MAO-A): 13%
Cc1c(C)c2ccc(OCC3CCCN(Cc4ccccc4)C3)cc2oc1=O (racemic)	–	> 100	–	5.3	265	3.65	33 (≈ 12.5 µg/mL)	–	–	–	–	–
CN(Cc1ccccc1)Cc1ccc(COc2ccc3c(C(F)F)cc(=O)oc3c2)cc1	560	> 100	–	9.8	142	4.8	0.4 (≈ 0.174 µg/mL)	–	130	430	–	Selectivity Index (Homo sapiens): > 73; inhibition at 10 µM (MAO-A): 17%
Cc1c(C)c2ccc(OCC3CCCN(Cc4cccc(F)c4)C3)cc2oc1=O (racemic)	1200	> 100	2	6.6	210	4.38	20 (≈ 7.91 µg/mL)	–	12	2000	10	–
Cc1c(C)c2ccc(OCc3ccc(CN(C)CCCC(F)F)cc3)cc2oc1=O	1500	> 100	–	–	–	3.78	13 (≈ 5.4 µg/mL)	–	160	4100	–	inhibition at 10 µM (MAO-A): 45%
Cc1c(C)c2ccc(OCCCN(Cc3cccc(F)c3)C(C)C)cc2oc1=O	910	> 100	8.1	–	–	–	13 (≈ 5.17 µg/mL)	22	350	–	–	inhibition (INH) [9]: Active
Cc1c(C)c2ccc(OCC3CCCN(CCCO)C3)cc2oc1=O (racemic)	1100	48.8	–	92.4	15.1	1.15	> 500	–	–	–	7.2	Activity (HepG2): Non-Toxic; Activity (SH-SY5Y): Non-Toxic
Cc1c(C)c2ccc(OCC3CCN(CCCC(F)F)CC3)cc2oc1=O	1200	73.4	–	11.9	116	2.34	448 (≈ 170 µg/mL)	8	530	–	10.8	microsomal CLint at 0.5 µM [14]: 14.1 µL/min/mg; half-life at 0.5 µM [15]: 98.9 min; efflux ratio [10]: 1; Papp A→B at 1 h, 10 µM [11]: 17 ×10⁻⁶ cm/s; Papp B→A at 1 h, 10 µM [12]: 16 ×10⁻⁶ cm/s; IC50 (Cytochrome P450 3A4): 800 nM; inhibition at 10 µM (MAO-A): 40%
Cc1c(C)c2ccc(OCC3CCCN(CCCC(F)F)C3)cc2oc1=O (racemic)	480	83.4	11	17.8	78.1	2.67	349 (≈ 132 µg/mL)	22	260	–	13.3	IC50 (Cytochrome P450 3A4): > 10000 nM
